Measured values published in ChEMBL document CHEMBL5620379, “Discovery, SAR and mechanistic studies of quinazolinone-based acetamide derivatives in experimental visceral leishmaniasis” (Eur J Med Chem, 2023).

Tests used:
J774 [1] = assay: Cytotoxicity against mouse J774 cells at 12.5 uM incubated for 72 hrs by MTT assay relative to control; format: toxicity, cell-based; details: j774, 72 h
J774 [2] = assay: Cytotoxicity against mouse J774 cells at 25 uM incubated for 72 hrs by MTT assay relative to control; format: toxicity, cell-based; details: j774, 72 h
J774 [3] = assay: Cytotoxicity against mouse J774 cells at 50 uM incubated for 72 hrs by MTT assay relative to control; format: toxicity, cell-based; details: j774, 72 h
Leishmania donovani [4] = assay: Antileishmanial activity against Leishmania donovani promastigotes measured after 48 hrs by MTT assay; format: functional, organism-based
Leishmania donovani [5] = assay: Antileishmanial activity against Leishmania donovani amastigotes infected in J774 macrophage assessed as inhibition of parasite growth incubated for 48 hrs by luciferase assay; format: functional, organism-based; details: J774, 48 h
J774 [6] = assay: Cytotoxicity against mouse J774 macrophage incubated for 72 hrs by MTT assay; format: functional
[7] = Selectivity index, ratio of CC50 for mouse J774 macrophage to IC50 for Leishmania donovani amastigotes infected in J774 macrophage; format: toxicity; details: J774 macrophages, read-out: Ratio CC50/IC50
Leishmania donovani [8] = assay: Antileishmanial activity against Leishmania donovani promastigotes at 25 uM measured after 48 hrs by MTT assay relative to control; format: functional
Leishmania donovani [9] = assay: Antileishmanial activity against Leishmania donovani amastigotes infected in J774 macrophage assessed as inhibition of parasite growth at 25 uM incubated for 48 hrs by luciferase assay relative to control; format: functional; parameters: scale not given: the % may be the effect or the level left

Row | Structure (SMILES) | Activity (J774 [1]) [%] | Activity (J774 [2]) [%] | Activity (J774 [3]) [%] | IC50 (Leishmania donovani [4]) [µM] | IC50 (Leishmania donovani [5]) [µM] | CC50 (J774 [6]) [µM] | selectivity ratio [7] | Activity (Leishmania donovani [8]) [%] | Activity (Leishmania donovani [9]) [%]
1 | Cn1c(-c2ccc(OCC(=O)Nc3cccc4cccnc34)cc2)nc2ccccc2c1=O | 82.65 | 76.21 | 42.14 | 16.1 | 18.4 | 42.7 | 2.32 | – | –
2 | Cn1c(-c2ccc(OCC(=O)Nc3ccccn3)cc2)nc2ccc(Cl)cc2c1=O | 65.58 | 59.37 | 39.88 | – | – | – | – | – | –
3 | CC(C)c1ccc(NC(=O)COc2ccc(-c3nc4ccccc4c(=O)n3C)cc2)cc1 | 69.76 | 67.4 | 49.31 | – | – | – | – | – | –
4 | Cc1ccc(NC(=O)COc2ccc(-c3nc4ccccc4c(=O)n3C)cc2)cc1C | 67.4 | 46.38 | 31.465 | – | – | – | – | – | –
5 | Cn1c(-c2ccc(OCC(=O)Nc3cccc(C(F)(F)F)c3)cc2)nc2ccccc2c1=O | 86.45 | 78.66 | 48.49 | 12.3 | 21.9 | 47.7 | 2.17 | – | –
6 | COc1ccc(NC(=O)COc2cccc(-c3nc4ccccc4c(=O)n3C)c2)cc1 | 64.08 | 52.92 | 29.78 | – | – | – | – | – | –
7 | CCn1c(-c2ccc(OCC(=O)Nc3ccc(F)cc3)cc2)nc2ccccc2c1=O | 59.51 | 43.73 | 34.39 | – | – | – | – | – | –
8 | Cn1c(-c2ccc(OCC(=O)Nc3ccc(Cl)cc3)cc2)nc2ccccc2c1=O | 85.35 | 81.59 | 58.88 | 16.1 | 22.1 | 61.8 | 2.78 | – | –
9 | Cn1c(-c2ccc(OCC(=O)Nc3ccc4c(c3)CCC4)cc2)nc2ccccc2c1=O | 87.89 | 53.88 | 36.13 | 8.26 | 6.23 | 31.7 | 5.09 | 79.73 | 78.87
10 | Cn1c(-c2ccc(OCC(=O)Nc3ccc(F)cc3)cc2)nc2ccccc2c1=O | 82.8 | 69.62 | 38.87 | 8.02 | 11.5 | 41.6 | 3.62 | – | –
11 | Cc1ccc(NC(=O)COc2cccc(-c3nc4ccccc4c(=O)n3C)c2)cc1 | 65.55 | 41.69 | 31.44 | – | – | – | – | – | –
12 | CCn1c(-c2ccc(OCC(=O)Nc3ccccn3)cc2)nc2ccccc2c1=O | 84.82 | 79.09 | 38.97 | 23.9 | 27.2 | 39.5 | 1.45 | – | –
13 | CCn1c(-c2ccc(OCC(=O)Nc3ccc(OC)cc3)cc2)nc2ccccc2c1=O | 67.45 | 62.11 | 43.01 | – | – | – | – | – | –
14 | COc1cc(NC(=O)COc2ccc(-c3nc4ccccc4c(=O)n3C)cc2)cc(OC)c1OC | 69.04 | 51.67 | 39.78 | – | – | – | – | – | –
15 | COc1ccc(NC(=O)COc2ccc(-c3nc4ccccc4c(=O)n3C)cc2)cc1 | 83.71 | 78.71 | 35.93 | 14.3 | 26.1 | 39.2 | 1.5 | – | –
16 | Cn1c(-c2cccc(OCC(=O)Nc3ccc(Cl)cc3)c2)nc2ccccc2c1=O | 84.53 | 71.35 | 55.23 | 9.11 | 11.9 | 54.1 | 4.54 | – | –
